Results: patent US5126258A (priority 1988, dated 1992)

Experiments:
[1] = tested on: 37G2; assay: Hydrolysis of reactant ligands by receptor 37G2; format: biochemical, mouse; set-up: key to hydrolysis by 37G2, symbol: --: No hydrolysis observed; settings: pH 8.0; 19: 2/5 uM, 21: 5/10 uM receptor/ligand
Experimental: (§1) ^1 Preliminary initial hydrolyses shown as the percentage of admixed
(§2) reactant ligand consumed for catalyzed and spontaneous hydrolyses. "--" =
(§3) No hydrolysis observed. "NT" = Not tried. All reactions were carried out
(§4) at pH 8.0 in a 50 mM phosphate buffer unless otherwise noted. Hydrolytic
(§5) percentages were determined by HPLC using a Hitachi model 655A12 liquid
(§6) chromatograph with a C18 Vydac 201TP54 column, except as noted below.
(§7) Mixtures of acetonitrile a nd water containing 0.1 percent trichloroaceti
(§8) acid [28:72-50:50 (v/v)] were used as elutant. Hydrolyses of Compounds 5
(§9) and 20 were assayed using fluorescence data.
(§10) ^2 Concentrations of receptor molecules (Rec.) and reactant ligands
(§11) (Lig.) in micromolar units, presuming a molecular weight of 150,000
(§12) daltons for each receptor molecule.
(§13) ^3 Reactant ligand (Lig.) used as substrate.
(§14) ^4 Time in hours that the reaction was permitted to take place.
(§15) ^5 Spontaneous hydrolytic percentages for the time period indicated.
(§16) ^6 Reaction carried out at pH 7.2 in a 50 mM phosphate buffer.

[2] = tested on: 21G2; assay: Hydrolysis of reactant ligands by receptor 21G2; format: biochemical, mouse; set-up: key to hydrolysis by 21G2, symbol: --: No hydrolysis observed; settings: pH 8.0; 19: 2/5 uM, 21: 5/10 uM receptor/ligand
Experimental: as §1, §2, §3, §4, §5, §6, §7, §8, §9, §10, §11, §12, §13, §14, §15, §16

[3] = tested on: 22F5; assay: Hydrolysis of reactant ligands by receptor 22F5; format: biochemical, mouse; set-up: key to hydrolysis by 22F5, symbol: --: No hydrolysis observed; settings: pH 8.0; 19: 2/5 uM, 21: 5/10 uM receptor/ligand
Experimental: as §1, §2, §3, §4, §5, §6, §7, §8, §9, §10, §11, §12, §13, §14, §15, §16

[4] = tested on: 1209; assay: Hydrolysis of reactant ligands by receptor 12C9 (column head prints 1209); format: biochemical, mouse; set-up: key to hydrolysis by 1209, symbol: --: No hydrolysis observed; settings: pH 8.0; 19: 2/5 uM, 21: 5/10 uM receptor/ligand
Experimental: as §1, §2, §3, §4, §5, §6, §7, §8, §9, §10, §11, §12, §13, §14, §15, §16

[5] = Spontaneous (uncatalyzed, background) hydrolysis; format: physicochemical; set-up: key to Spon. (spontaneous hydrolysis), symbol: --: No hydrolysis observed; settings: pH 8.0
Experimental: The practical range of pH for the assay is limited by the rapid spontaneous rate of hydrolysis of an ester Compound 5 above pH 8.0. Initially, the ester was used at a concentration that was about four-fold greater than that of the protein, and the mixture was incubated at pH 7.2 for 10 minutes. Any change in fluorescence above background was noted.
The lack of spectroscopic distinction between such esters and their hydrolysis products recommended a chromatographic analysis of the process. Referring to FIG. 3, a mixture of Compound 7 (5 uM) and the monoclonal antibody from hybridoma P3 6D4 (0.1 uM) in phosphate buffer (50 mM, pH 8.0) was analyzed over time by high performance liquid chromatography (HPLC). The accelerated hydrolysis of the ester was apparent from the decrease of its peak and the concurrent increase in two new peaks that correspond with the expected products. Under these conditions, the ester is completely consumed in 60-80 minutes during which time the background rate accounts for about 12 to 16 percent hydrolysis. The chromatographic profile is the same as that produced by treatment with hog liver esterase.
^c The rate constants were determined spectrophotometrically (at 245
nm) by measuring initial rates at five concentrations of ester.
as §1, §2, §3, §4, §5, §6, §7, §8, §9, §15
Reaction kinetics were studied using three reactant ligands as substrates for monoclonal receptors 37G2 and 22F5. Data from initial rates were consistent with Michaelis-Menten reaction mechanism for a usual enzyme-substrate system. Initial rates were followed using at 271 nm using a U.V.-visible spectorphotometer for Compound 17, and a fluorescence spectrometer for Compounds 5 and 20, using an excitation wavelength of 355 nm and an emission wavelength of 455 nm for both compounds.

[6] = tested on: 17G8; assay: Hydrolysis of reactant ligands by receptor 17G8; format: biochemical, mouse; set-up: key to hydrolysis by 17G8, symbol: --: No hydrolysis observed; settings: pH 8.0; 19: 2/5 uM, 21: 5/10 uM receptor/ligand
Experimental: as §1, §2, §3, §4, §5, §6, §7, §8, §9, §10, §11, §12, §13, §14, §15, §16

[7] = tested on: 7E5; assay: Hydrolysis of reactant ligands by receptor 7E5; format: biochemical, mouse; set-up: key to hydrolysis by 7E5, symbol: --: No hydrolysis observed; settings: pH 8.0; 19: 2/5 uM, 21: 5/10 uM receptor/ligand
Experimental: as §1, §2, §3, §4, §5, §6, §7, §8, §9, §10, §11, §12, §13, §14, §15, §16

[8] = tested on: 13E10; assay: Hydrolysis of reactant ligands by receptor 13E10; format: biochemical, mouse; set-up: key to hydrolysis by 13E10, symbol: --: No hydrolysis observed; settings: pH 8.0; 19: 2/5 uM, 21: 5/10 uM receptor/ligand
Experimental: as §1, §2, §3, §4, §5, §6, §7, §8, §9, §10, §11, §12, §13, §14, §15, §16

[9] = tested on: eight monoclonal receptors 21G2, 7E5, 37G2, 13E10, 12C9, 44A2, 17G8 and 22F5; assay: Catalyzed hydrolysis of reactant ligands by the eight QPN1 monoclonal receptors, summary; format: biochemical, mouse; settings: pH 8.0
Experimental: Mice were hyperimmunized with the Compound 13-KLH conjugate over a three to four week time period. Sera were assayed in an ELISA using a Compound 13-BSA conjugate bound to microtiter plate wells as the solid-phase antigen. Cloned hybridomas were also screened using that ELISA assay.
Each of those catalyses could be inhibited by an appropriate analog-ligand. Thus, a relatively high percentage of induced monoclonal receptors was capable of catalyzing an esterolytic reaction. The reason for this relatively high percentage of useful receptors being induced is unknown, but could be due to the presence of phosphonamidate group nitrogen atom, as compared to a phosphonate oxygen atom, or to the quinoline nucleus of the analog-ligand. Those eight catalytic monoclonal receptors and the hybridomas that secrete them are identified by the laboratory designations "QPN1 7E5", "QPN1 12C9", "QPN1 13E10", "QPN1 17G8", "QPN1 21G2", "QPN1 22F5", "QPN1 37G2" and QPN1 44A2. The prefix "QPNI" is sometimes omitted herein when discussing these hybridomas and receptors.
Amide cleavage for Compounds 14 and 15 was assayed by analyzing for the production of free aminoquinaldine or aminonaphthalene by measuring the increase in the azo dye that results from derivatizing the free aminoquinaldine or aminonapthalene with a diazotization reagent.
Catalysis reactions were conducted by preparing a reaction admixture of 100 microliters (ul) total volume containing 5 micromolar (uM) monoclonal antibody, 50-75 uM amide reactant ligand substrate and a buffer described hereinafter. The buffer included in the above admixture varied depending upon the pH utilized as follows: pH 5, 10 […] sodium acetate, 10 mM sodium chloride; pH 7.2, 10 mM sodium phosphate, 0.15 molar (M) sodium chloride; pH 8.0; 50 mM sodium phosphate. The amide-containing substrates screened in this assay were added to the above admixture in 1 ul of a 100-fold concentrated stock solution of dimethyl formamide (DMF). Monoclonal antibody was added to the above admixture from a concentrated stock solution. The resulting admixture was placed into the well of a 96 well flat bottom microtiter plate (Costar, Cambridge, Mass.) and maintained in a moist vapor environment chamber at 23 degrees C. The production of aminoquinaldine or aminonaphthalene was then assayed as described below after 2,3,5, or 6 days.
The aminoquinaldine or aminonapthalene product produced by the catalyzed reaction was measured by first admixing 20 ul of 5M HCl, 80 ul acetone and 10 ul 0.5% (w/v) sodium nitrite to the reaction admixture to form a second admixture and maintaining that second admixture for 3 minutes at room temperature. Thereafter, 10 ul 2.5% (w/v) ammonium sulfamate was added to form a third admixture that was maintained for 2 minutes at room temperature. A still further 10 ul of 0.5% (w/v) N-(1-napthyl)ethylenediamine dihydrochloride was added to form a fourth admixture that was then maintained for 15 minutes at room temperature. Thereafter the resulting azo dye present in the fourth admixture was measured by absorbance spectroscopy at 540 nanometers (nm) for aminoquinaldine using a Model EL 309 Automated Microplate Reader (Bio-Tek Instruments, Winooski, Vt.).

[10] = tested on: 44A2; assay: Hydrolysis of reactant ligands by receptor 44A2; format: biochemical, mouse; set-up: key to hydrolysis by 44A2, symbol: --: No hydrolysis observed; settings: pH 8.0; 19: 2/5 uM, 21: 5/10 uM receptor/ligand
Experimental: as §1, §2, §3, §4, §5, §6, §7, §8, §9, §10, §11, §12, §13, §14, §15, §16

SMILES | hydrolysis by 37G2, symbol [1] | hydrolysis by 21G2, symbol [2] | hydrolysis by 22F5, symbol [3] | hydrolysis by 1209, symbol [4] | Spon. (spontaneous hydrolysis), symbol [5] | hydrolysis by 17G8, symbol [6] | hydrolysis by 7E5, symbol [7] | hydrolysis by 13E10, symbol [8] | receptors (of eight) that catalyzed hydrolysis of the compound [9] | hydrolysis by 44A2, symbol [10]
CC(=O)Nc1ccc(CC(=O)Nc2cccc3ccc(C)nc23)cc1 [Compound 14] | -- | -- | -- | -- | -- | -- | -- | -- | none of the receptors catalyzed hydrolysis | --
CC(=O)Nc1ccc(CC(=O)Nc2cccc3ccccc23)cc1 [Compound 15] | -- | -- | -- | -- | -- | -- | -- | -- | none of the receptors catalyzed hydrolysis | --
CC(=O)Nc1ccc(CC(=O)Oc2cccc3ccc(C)nc23)cc1 [Compound 16] | -- | -- | -- | -- | -- | -- | -- | -- | failed to react | --
